Data from US8906929B2, “Inhibitors of human immunodeficiency virus replication” (priority 2012, dated 2014).

System: recombinant NL-Rluc virus
Test: Inhibition of HIV replication (NL-RLuc virus in MT-2 cells, luciferase readout)
Assay type: cell-based
Conditions: Human immunodeficiency virus 1, MT2, 120 h, 5 days of incubation, 10% FBS

Row | Structure (SMILES) | EC50 [nM]
1 | Cc1ccc2c(c1)-c1cccc(c1)-c1cc3nc(C)c([C@H](OC(C)(C)C)C(=O)O)c(n3n1)N1CCC(C)(CC1)OCCC[C@@H](C)O2 [Example 60, (2S)-2-(tert-Butoxy)-2-[(22R)-4,17,22,2,7-tetramethyl-21,26-dioxa-1,5,7,8-tetraazahexacyclo[25.2.2.1^6,^9.1^10,^14.0^2,^7.0^15,^20]tritriaconta-2,4,6(33),8,10(32),11,13,15(20),16,18-decaen-3-yl]acetic acid] | 84
2 | Cc1ccc2c(c1)-c1cccc(c1)-c1cc3nc(C)c([C@H](OC(C)(C)C)C(=O)O)c(n3n1)N1CCC(C)(CC1)OCCC[C@H](C)O2 [Example 61, (2S)-2-(tert-Butoxy)-2-[(22S)-4,17,22,27-tetramethyl-21,26-dioxa-1,5,7,8-tetraazahexacyclo[25.2.2.1^6,^9.1^10,^14.0^2,^7.0^15,^20]tritriaconta-2,4,6(33),8,10(32),11,13,15(20),16,18-decaen-3-yl]acetic acid] | 10
3 | Cc1nc2cc3nn2c(c1[C@H](OC(C)(C)C)C(=O)O)N1CCC(C)(CC1)OCC=CCOc1ccc(F)cc1-c1cccc-3c1 [Example 62] | 7
4 | Cc1nc2cc3nn2c(c1[C@H](OC(C)(C)C)C(=O)O)N1CCC(C)(CC1)OCCCCOc1ccc(F)cc1-c1cccc-3c1 [Example 63, (2S)-2-(tert-Butoxy)-2-{17-fluoro-4,27-dimethyl-21,26-dioxa-1,5,7,8-tetraazahexacyclo[25.2.2.1^6,^9.1^10,^14.0^2,^7.0^15,^20]tritriaconta-2,4,6(33),8,10(32),11,13,15(20),16,18-decaen-3-yl}acetic acid] | 7
5 | Cc1ccc2c(c1)-c1cccc(c1)-c1cc3nc(C)c([C@H](OC(C)(C)C)C(=O)O)c(n3n1)N1CCC(C)(CC1)OCC=CCC[C@H](C)O2 [Example 64, (2S)-2-(tert-Butoxy)-2-[(22S)-4,17,22,29-tetramethyl-21,28-dioxa-1,5,7,8-tetraazahexacyclo[27.2.2.1^6,^9.1^10,^14.0^2,^7.0^15,^20]pentatriaconta-2,4,6(35),8,10(34), 11, 13, 15(20),16,18,25-undecaen-3-yl]acetic acid] | 26
6 | Cc1cc2c(cc1Cl)O[C@@H](C)CC=CCOC1(C)CCN(CC1)c1c([C@H](OC(C)(C)C)C(=O)O)c(C)nc3cc(nn13)-c1cccc-2c1 [Example 66, (2S)-2-(tert-Butoxy)-2-[(22S)-18-chloro-4,17,22,28-tetramethyl-21,27-dioxa-1,5,7,8-tetraazahexacyclo[26.2.2.1^6,^9.1^10,^14.0^2,^7.0^15,^20]tetratriaconta-2,4,6(34),8,10(33), 11, 13, 15(20),16,18,24-undecaen-3-yl]acetic acid] | 43
7 | Cc1cc2c(cc1Cl)O[C@@H](C)CCCCOC1(C)CCN(CC1)c1c([C@H](OC(C)(C)C)C(=O)O)c(C)nc3cc(nn13)-c1cccc-2c1 [Example 67, (2S)-2-(tert-butoxy)-2-[(22S)-18-chloro-4,17,22,28-tetramethyl-21,27-dioxa-1,5,7,8-tetraazahexacyclo[26.2.2.1^6,^9.1^10,^14.0^2,^7.0^15,^20]tetratriaconta-2,4,6(34),8,10(33), 11, 13, 15 (20),16,18-decaen-3-yl]acetic acid] | 109
8 | Cc1ccc2c(c1F)-c1cccc(c1)-c1cc3nc(C)c([C@H](OC(C)(C)C)C(=O)O)c(n3n1)N1CCC(C)(CC1)OC/C=C/C[C@H](C)O2 [Example 68, (2S)-2-(tert-Butoxy)-2-[(22S,^24E)-16-fluoro-4,17,22,28-tetramethyl-21,27-dioxa-1,5,7,8-tetraazahexacyclo[26.2.2.1^6,^9.1^10,^14. 0^2,^7.0^15,^20]tetratriaconta-2,4,6(34),8,10(33), 11, 13, 15 (20), 16,18,24-undecaen-3-yl]acetic acid] | 9
9 | Cc1ccc2c(c1F)-c1cccc(c1)-c1cc3nc(C)c([C@H](OC(C)(C)C)C(=O)O)c(n3n1)N1CCC(C)(CC1)OC/C=C\C[C@H](C)O2 [Example 69, (2S)-2-(tert-Butoxy)-2-[(22S,24Z)-16-fluoro-4,17,22,28-tetramethyl-21,27-dioxa-1,5,7,8-tetraazahexacyclo[26.2.2.1^6,^9.1^10,^14.0^2,^7.0^15,^20]tetratriaconta-2,4,6(34),8,10(33), 11, 13, 15 (20),16,18,24-undecaen-3-yl]acetic acid] | 21
10 | Cc1ccc2c(c1F)-c1cccc(c1)-c1cc3nc(C)c([C@H](OC(C)(C)C)C(=O)O)c(n3n1)N1CCC(C)(CC1)OCCCC[C@H](C)O2 [Example 70, (2S)-2-(tert-Butoxy)-2-[(22S)-16-fluoro-4,17,22,28-tetramethyl-21,27-dioxa-1,5,7,8-tetraazahexacyclo[26.2.2.1^6,^9.1^10,^14.0^2,^7.0^15,^20]tetratriaconta-2,4, 6(34), 8, 10(33), 11, 13, 15(20),16,18-decaen-3-yl]acetic acid] | 19
11 | Cc1nc2cc3nn2c(c1[C@H](OC(C)(C)C)C(=O)O)N1CCC(C)(CC1)OCC=CC[C@H](C)Oc1ccc(C(N)=O)cc1-c1cccc-3c1 [Example 72, (2S)-2-(tert-Butoxy)-2-[(22S)-17-carbamoyl-4,22,27-trimethyl-21,26-dioxa-1,5,7,8-tetraazahexacyclo[25.2.2.1^6,^9.1^10,^14.0^2,^7.0^15,^20]tritriaconta-2,4, 6(33), 8, 10(32), 11, 13, 15(20),16,18,23-undecaen-3-yl]acetic acid] | 15
12 | Cc1nc2cc3nn2c(c1[C@H](OC(C)(C)C)C(=O)O)N1CCC(C)(CC1)OCCCC[C@H](C)Oc1ccc(C#N)cc1-c1cccc-3c1 [Example 73, (2S)-2-(tert-Butoxy)-2-[(22S)-17-cyano-4,22,28-trimethyl-21,27-dioxa-1,5,7,8-tetraazahexacyclo[26.2.2.1^6,^9.1^10,^14.0^2,^7.0^15,^20]tetratriaconta-2,4,6(34),8,10(33), 11, 13, 15(20),16,18-decaen-3-yl]acetic acid] | 6
13 | Cc1ccc2c(c1)O[C@@H](C)CCCCOC1(C)CCN(CC1)c1c([C@H](OC(C)(C)C)C(=O)O)c(C)nc3cc(nn13)-c1cccc-2c1 [Example 74, (2S)-2-(tert-Butoxy)-2-[(22S)-4,18,22,28-tetramethyl-21,27-dioxa-1,5,7,8-tetraazahexacyclo[26.2.2.1^6,^9.1^10,^14.0^2,^7.0^15,^20]tetratriaconta-2,4,6(34),8,10(33),11,13,15(20),16,18-decaen-3-yl]acetic acid] | 36
14 | Cc1cc2c(cc1C)-c1cccc(c1)-c1cc3nc(C)c([C@H](OC(C)(C)C)C(=O)O)c(n3n1)N1CCC(C)(CC1)OCC=CC[C@H](C)O2 [Example 75, (2S)-2-(tert-Butoxy)-2-[(22S)-4,17,18,22,28-pentamethyl-21,27-dioxa-1,5,7,8-tetraazahexacyclo[26.2.2.1^6,^9.1^10,^14.0^2,^7.0^15,^20]tetratriaconta-2,4,6(34),8,10(33), 11, 13, 15 (20),16,18,24-undecaen-3-yl]acetic acid] | 34
15 | Cc1cc2c(cc1C)-c1cccc(c1)-c1cc3nc(C)c([C@H](OC(C)(C)C)C(=O)O)c(n3n1)N1CCC(C)(CC1)OCCCC[C@H](C)O2 [Example 76, (2S)-2-(tert-Butoxy)-2-[(22S)-4,17,18,22,28-pentamethyl-21,27-dioxa-1,5,7,8-tetraazahexacyclo[26.2.2.1^6,^9.1^10,^14.0^2,^7.0^15,^20]tetratriaconta-2,4,6(34),8,10(33),11,13,15(20),16,18-decaen-3-yl]acetic acid] | 29
16 | Cc1cccc2c1-c1cccc(c1)-c1cc3nc(C)c([C@H](OC(C)(C)C)C(=O)O)c(n3n1)N1CCC(C)(CC1)OCCCC[C@H](C)O2 [Example 77, (2S)-2-(tert-Butoxy)-2-[(22S)-4,16,22,28-tetramethyl-21,27-dioxa-1,5,7,8-tetraazahexacyclo[26.2.2.1^6,^9.1^10,^14.0^2,^7.0^15,^20]tetratriaconta-2,4,6(34),8,10(33), 11, 13, 15(20),16,18-decaen-3-yl]acetic acid] | 21
17 | Cc1cc2c(cc1F)O[C@@H](C)CC=CCOC1(C)CCN(CC1)c1c([C@H](OC(C)(C)C)C(=O)O)c(C)nc3cc(nn13)-c1cccc-2c1 [Example 78, (2S)-2-(tert-Butoxy)-2-[(22S)-18-fluoro-4,17,22,28-tetramethyl-21,27-dioxa-1,5,7,8-tetraazahexacyclo[26.2.2.1^6,^9.1^10,^14.0^2,^7.0^15,^20]tetratriaconta-2,4,6(34),8,10(33),11,13, 15(20), 16,18,24-undecaen-3-yl]acetic acid] | 31
18 | Cc1cc2c(cc1F)O[C@@H](C)CCCCOC1(C)CCN(CC1)c1c([C@H](OC(C)(C)C)C(=O)O)c(C)nc3cc(nn13)-c1cccc-2c1 [Example 79, (2S)-2-(tert-Butoxy)-2-[(22S)-18-fluoro-4,17,22,28-tetramethyl-21,27-dioxa-1,5,7,8-tetraazahexacyclo[26.2.2.1^6,^9.1^10,^14.0^2,^7.0^15,^20]tetratriaconta-2,4,6(34),8,10(33),11,13,15(20),16,18-decaen-3-yl]acetic acid] | 38
19 | Cc1nc2cc3nn2c(c1[C@H](OC(C)(C)C)C(=O)O)N1CCC(C)(CC1)OCCCC[C@H](C)Oc1ccc(F)cc1-c1cccc-3c1 [Example 81, (2S)-2-(tert-Butoxy)-2-[(22S)-17-fluoro-4,22,28-trimethyl-21,27-dioxa-1,5,7,8-tetraazahexacyclo[26.2.2.1^6,^9.1^10,^14.0^2,^7.0^15,^20]tetratriaconta-2,4,6(34),8,10(33),11,13, 15(20),16,18-decaen-3-yl]acetic acid] | 13
20 | Cc1nc2cc3nn2c(c1[C@H](OC(C)(C)C)C(=O)O)N1CCC(C)(CC1)OCCCC[C@H](C)Oc1ccc(Cl)cc1-c1cccc-3c1 [Example 82, (2S)-2-(tert-Butoxy)-2-[(22S)-17-chloro-4,22,28-trimethyl-21,27-dioxa-1,5,7,8-tetraazahexacyclo[26.2.2.1^6,^9.1^10,^14.0^2,^7.0^15,^20]tetratriaconta-2,4,6(34),8,10(33), 11, 13, 15 (20),16,18-decaen-3-yl]acetic acid] | 20
